Experimental data published in patent EP4252780A1, “BIOLOGICALLY ACTIVE MATERIAL CONJUGATE HAVING BIOTIN MOIETY, FATTY ACID MOIETY, OR COMBINATION THEREOF COUPLED THERETO” (priority 2020, dated 2022).
Non-standard residues stand in square brackets, D forms with d. No end group written: not given here. F14 = C20-Glu-EG2-EG2-MAL; B38 = not defined here; Aib = CC(C)(N)C(=O)O

Assays:
[1] = body weight reduction and feed intake over 24 hours after oral administration; assay type: in vivo; details: oral administration to mice
[2] = body weight change after 2 weeks of subcutaneous administration in obese mouse model; assay type: in vivo; details: subcutaneous for 2 weeks, FIG. 10
Protocol: Conjugates 58 and 59 were subcutaneously administered for 2 weeks into an obese mouse model, then body weight changes were measured.

Polypeptide SEQ ID NO 30: amylin derivative RCNTATCATQRLADFLLRHSSNNFGAIPSSTNVGSKTY (RCNTATCATQRLADFLRHSSNNFGAIPSSTNVGSKTY; Amylin derivative) [reference compound]
Weight loss (%) compared to untreated group [1]: -1.17 ± 0.76%

Conjugate 33: polypeptide SEQ ID NO 24; biotin moiety B38 at K1 (K(B38)CNTATCATQRLANFLVHSSNNFGPILPPTNVGSNTY; ends and bridges not checked)
Weight loss (%) compared to untreated group [1]: -4.07 ± 1.30%

Conjugate 59: polypeptide SEQ ID NO 8; biotin moiety B38 at K12; fatty acid moiety F14 at C30 (H[Aib]QGTFTSDYSK(B38)YLDEQAAKEFVQWLMNTC(F14); reading uncertain)
body weight compared to the untreated group [2]: substantially reduced

Polypeptide SEQ ID NO 26: amylin derivative KCNTATCATQRLADFLLRHSSPNFGAIPSSTNVGSRTY (KCNTATCATQRLADFLRHSSPNFGAIPSSTNVGSRTY; Amylin derivative) [reference compound]
Weight loss (%) compared to untreated group [1]: -3.13 ± 1.05%

Polypeptide SEQ ID NO 28: amylin derivative KCNTATCATQRLADFLLRHSSNNFGAIPSSTNVGSRTY (KCNTATCATQRLADFLRHSSNNFGAIPSSTNVGSRTY; Amylin derivative) [reference compound]
Weight loss (%) compared to untreated group [1]: -1.11 ± 0.84%

Conjugate 61: polypeptide SEQ ID NO 24; biotin moiety B38 at K1; fatty acid moiety F11 at K1 (K(B38)CNTATCATQRLANFLVHSSNNFGPILPPTNVGSNTY; ends and bridges not checked; also: fatty acid F11 also at K1, attachment order not given here)
Weight loss (%) compared to untreated group [1]: -2.96 ± 4.22%

Polypeptide SEQ ID NO 24: amylin derivative KCNTATCATQRLANFLVHSSNNFGPILPPTNVGSNTY (Amylin derivative) [reference compound]
Weight loss (%) compared to untreated group [1]: -2.63 ± 1.06%
